In patent publication US7538098B2, “19-nor-vitamin D analogs with 1,2 or 3,2 heterocyclic ring” (Wisconsin Alumni Research Foundation, priority 2006, dated 2009):
“Also recorded” adds a separate entry of the source.

Assays:
[1] = tested on: Human promyelocytic leukemia (HL60) cells; assay: HL-60 differentiation (nitro blue tetrazolium reduction); format: cell-based; conditions: FIG. 2; for EC50: Homo sapiens, HL-60
Description: The study drugs were dissolved in ethanol and the concentrations determined using UV spectrophotometry. Serial dilutions were prepared so that a range of drug concentrations could be tested without changing the final concentration of ethanol (≦0.2%) present in the cell cultures.
Human promyelocytic leukemia (HL60) cells were grown in RPMI-1640 medium containing 10% fetal bovine serum. The cells were incubated at 37° C. in the presence of 5% CO2.
HL60 cells were plated at 1.2×10^5 cells/ml. Eighteen hours after plating, cells in duplicate were treated with drug. Four days later, the cells were harvested and a nitro blue tetrazolium reduction assay was performed (Collins et al., 1979; J. Exp. Med. 149:969-974). The percentage of differentiated cells was determined by counting a total of 200 cells and recording the number that contained intracellular black-blue formazan deposits. Verification of differentiation to monocytic cells was determined by measuring phagocytic activity (data not shown).

[2] = tested on: 24-hydroxylase (24Ohase) gene promoter in ROS 17/2.8 (bone) cells; assay: In vitro transcription assay (luciferase reporter); format: cell-based; conditions: FIG. 3; for EC50: 24-hydroxylase promoter luciferase reporter, read-out: EC50, transcriptional activity in bone cells; for Transcriptional activity, result in words: 24-hydroxylase (CYP-24) promoter luciferase reporter
Description: Transcription activity was measured in ROS 17/2.8 (bone) cells that were stably transfected with a 24-hydroxylase (24Ohase) gene promoter upstream of a luciferase reporter gene (Arbour et al., 1998). Cells were given a range of doses. Sixteen hours after dosing the cells were harvested and luciferase activities were measured using a luminometer. RLU=relative luciferase units

D-deficient CD-1 mice = assay: Bone calcium mobilization, 1st in vivo study (D-deficient mice); conditions: for Bone calcium mobilization activity (serum calcium change), overall: single intraperitoneal injection, D-deficient CD-1 mice, FIG. 4
Description: Female, CD-1 mice (6 weeks old) were purchased from Harlan Sprague-Dawley. Upon arrival, the animals were placed in a room with filtered lighting and fed a purified, D-deficient diet (Suda et al 1970 J. Nutrition) for 17 weeks. […] Serum calcium was measured by diluting with 0.1% lanthum chloride and reading the absorbance using an atomic absorption spectrometer. The change in serum calcium from pre-dose values (baseline) is reported.
(§1) In vivo data were analyzed by one-way ANOVA followed by pairwise comparisons when significant overall differences were detected. Post-hoc analyses includes, Tukey's, Scheffe's, and Fisher's LSD tests. Only differences (p<0.05) that were present in two out of the three post-hoc tests were considered significant.
Calcium mobilization from bone in vitamin D-deficient animals.

[3] = target: T1, full-length recombinant rat vitamin D receptor (Rattus norvegicus, UniProt P13053); assay: Vitamin D receptor competitive binding with [3H]-1,25(OH)2D3; conditions: FIG. 1; for Ki: full-length recombinant rat VDR, read-out: Ki, competition with [3H]-1,25(OH)2D3 for binding to the vitamin D receptor
T1 construct: Full-length recombinant rat receptor was expressed in E. coli BL21 (DE3) Codon Plus RIL cells; histidine tag (C); made in house; host or cells: E. coli BL21 (DE3) Codon Plus RIL
T1 sequence (P13053 1-423): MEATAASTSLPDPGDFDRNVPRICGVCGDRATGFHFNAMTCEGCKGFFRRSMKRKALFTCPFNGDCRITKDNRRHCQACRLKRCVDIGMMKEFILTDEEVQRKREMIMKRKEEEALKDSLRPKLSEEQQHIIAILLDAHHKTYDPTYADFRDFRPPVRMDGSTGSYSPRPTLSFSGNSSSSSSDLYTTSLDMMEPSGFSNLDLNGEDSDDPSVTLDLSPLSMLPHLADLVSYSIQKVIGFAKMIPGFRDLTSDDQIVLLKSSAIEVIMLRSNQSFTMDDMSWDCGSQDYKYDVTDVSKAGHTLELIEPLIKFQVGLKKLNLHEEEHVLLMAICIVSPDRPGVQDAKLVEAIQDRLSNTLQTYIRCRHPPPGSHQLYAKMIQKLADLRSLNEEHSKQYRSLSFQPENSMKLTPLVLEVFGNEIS
Description: Full-length recombinant rat receptor was expressed in E. coli BL21 (DE3) Codon Plus RIL cells and purified to homogeneity using two different column chromatography systems. The first system was a nickel affinity resin that utilizes the C-terminal histidine tag on this protein. The protein that was eluted from this resin was further purified using ion exchange chromatography (S-Sepharose
Fast Flow). Aliquots of the purified protein were quick frozen in liquid nitrogen and stored at −80° C. until use. For use in binding assays, the protein was diluted in TEDK50 (50 mM Tris, 1.5 mM EDTA, pH7.4, 5 mM DTT, 150 mM KCI) with 0.1% Chaps detergent. The receptor protein and ligand concentration was optimized such that no more than 20% of the added radiolabeled ligand was bound to the receptor.
Radiolabeled and unlabeled ligands were added to 100 mcl of the diluted protein at a final ethanol concentration of ≦10%, mixed and incubated overnight on ice to reach binding equilibrium. The following day, 100 mcl of hydroxylapatite slurry (50%) was added to each tube and mixed at 10-minute intervals for 30 minutes. The hydroxylapaptite was collected by centrifugation and then washed three times with Tris-EDTA buffer (50 mM Tris, 1.5 mM EDTA, pH 7.4) containing 0.5% Titron X-100. After the final wash, the pellets were transferred to scintillation vials containing 4 ml of Biosafe II scintillation cocktail, mixed and placed in a scintillation counter. Total binding was determined from the tubes containing only radiolabeled ligand.

D-sufficient CD-1 mice [4] = assay: Bone calcium mobilization, 2nd in vivo study (D-sufficient mice); conditions: single intraperitoneal injection, two doses, 72 hours; FIG. 5
Description: (§2) 6-7 week old female CD-1 mice were purchased from Harlan (Indianapolis, Ind.). The animals were group housed and fed a purified diet containing 0.47% calcium. (Suda et al 1970 J. Nutrition). After a 5-7 day acclimation period, the animals were assigned to treatment groups (n=5-6/group) and given a single dose of the designated analogues by intraperitoneal injection. Blood was collected for serum calcium concentration analyses immediately prior to dose administration and 72 hours following dose delivery. Serum calcium were analyzed as described above.
as §1

D-sufficient CD-1 mice [5] = assay: Bone calcium mobilization, 3rd in vivo study (routes of administration); conditions: FIG. 6
From the text: as §2, with “groups (n=5/group)” for “groups (n=5-6/group)”, “intraperitoneal injection or oral gavage.” for “intraperitoneal injection.”, “analyses at various timepoints” for “analyses immediately prior to dose administration and 72 hours”, “calcium was” for “calcium were”
as §1

SMILES | EC50 [1] [nM] | EC50 [2] [nM] | Bone calcium mobilization activity (serum calcium change), overall (D-deficient CD-1 mice) | Ki [3] [nM] | VDR binding activity relative to 1,25-(OH)2D3 ([3]; less active than 1,25-(OH)2D3) | HL-60 cell differentiation, result in words [1] | Transcriptional activity, result in words [2] | Serum calcium change in D-sufficient mice (D-sufficient CD-1 mice [4]) | VDR binding, result in words [3] | Calcemic response 48 hours after the dose (D-deficient CD-1 mice; D-deficient mice, analog doses exceeding thirty times that of the natural hormone, 48 hours) | Onset of serum calcium increase compared to 1,25(OH)2D3 (D-sufficient CD-1 mice [5]) | Serum calcium increase by route of administration (D-sufficient CD-1 mice [5]; oral gavage vs. intraperitoneal injection)
C=C1/C(=C\C=C2/CCC[C@]3(C)[C@@H]([C@H](C)CCCC(C)(C)O)CC[C@@H]23)C[C@@H](O)C[C@@H]1O [1,25(OH)2D3, 1α,25-dihydroxyvitamin D3, reference compound] | 2 | 0.2 | increased serum calcium levels |  |  |  |  |  |  |  |  | 
C[C@H](CCCC(C)(C)O)[C@H]1CC[C@H]2/C(=C/C=C3/C[C@@H](O)C4=CCCO[C@@H]4C3)CCC[C@]12C [REV-A] | 100 | 30 |  | 30 | 3 orders of magnitude | considerably less active than 1,25(OH)2D3 | weak transcriptional activity; also recorded: much less transcriptional activity than 1α,25-dihydroxyvitamin D3 | no significant increase in serum calcium |  |  |  | 
C[C@H](CCCC(C)(C)O)[C@H]1CC[C@H]2/C(=C/C=C3\C[C@@H](O)C4=CCCO[C@@H]4C3)CCC[C@]12C [REV-B] | 1000 |  | considerable bone calcium mobilization activity | > 10000 |  | lacks activity in cellular differentiation; also recorded: considerably less active than 1,25(OH)2D3 | essentially no transcriptional activity; also recorded: lacks activity; also recorded: inactive | remarkable in vivo activity of REV-B to raise blood calcium levels | does not bind to the VDR; also recorded: little binding activity for VDR | markedly more active | significant delay | Both routes of administration are effective at causing an increase in serum calcium; however, intraperitoneal injection is more effective than oral gavage
